Results on 10 compounds are retold here after publication PMC7686577, “Discovery of Novel IDH1 Inhibitor Through Comparative Structure-Based Virtual Screening” (Frontiers in Pharmacology, 2020).

Experiment [1] has as its target mutant IDH1^R132H (Homo sapiens, UniProt O75874, R132H). The experiment is described as follows: IDH1^R132H enzymatic assay (diaphorase/resazurin readout of NADPH). The conditions noted are these: for Inhibition ratio (%) 50 (μM): compound at 50 μM. Format: biochemical. Here is the method: This assay added into a 384-well blank plate and then incubated at room temperature for 60 min. […] Curve fitting for dose response IC50 was done using GraphPad Prism.
These 12 ligands were submitted to determine the IC50.
A general note: Resazurin is reduced to fluorescent resorufin, in cell work by metabolically active cells.

Experiment [2] deals with advanced hematological malignancies. Set-up: method as in Foran et al., 2019. The conditions noted are these: clinic, ref Foran et al., 2019; cited from earlier work.

Chain of mutant IDH1^R132H (O75874 whole entry R132H): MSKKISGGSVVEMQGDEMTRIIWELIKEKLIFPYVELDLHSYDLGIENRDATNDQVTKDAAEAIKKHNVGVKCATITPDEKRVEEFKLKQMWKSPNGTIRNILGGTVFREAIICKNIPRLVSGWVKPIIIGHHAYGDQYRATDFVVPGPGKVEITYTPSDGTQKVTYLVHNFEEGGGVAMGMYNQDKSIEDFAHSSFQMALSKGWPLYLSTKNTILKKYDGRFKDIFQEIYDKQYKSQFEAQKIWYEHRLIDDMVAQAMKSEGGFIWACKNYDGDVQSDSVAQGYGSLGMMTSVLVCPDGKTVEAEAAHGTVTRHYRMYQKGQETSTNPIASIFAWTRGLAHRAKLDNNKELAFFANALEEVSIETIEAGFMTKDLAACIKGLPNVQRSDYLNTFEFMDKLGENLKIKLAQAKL

A word on the IC50: it is the concentration that inhibits the measured activity by half. A higher IC50 goes with lower potency. `O=C(NCc1ccc(C(F)(F)F)cc1)c1nnn(-c2ccccc2Cl)c1-c1cccnc1` [L806-0255]: in experiment [1], it took 28.3 ± 2.5 µM to reach half-maximal inhibition (IC50) and the “Inhibition ratio (%) 50 (μM)” value was 66.25±3.25%.

With `O=C1C[C@H](C(=O)N(CCc2ccccc2)Cc2ccccc2)CN1Cc1cccc(Br)c1` [V015-1671], in experiment [1], inhibition was half-maximal at 23.8 ± 1.8 µM (IC50) and the “Inhibition ratio (%) 50 (μM)” value amounted to 65.30±2.30%. The like results for `CCC[C@@H]1N=C2c3ccccc3N=C(S[C@@H](CC)C(=O)Nc3cccc(Cl)c3)N2C1=O` [G568-0082] were, in that order, 41.9 ± 8 µM and 54.30±4.30%. The matching figures for `CCOC(=O)c1[nH]c(C)c(CN(Cc2ccccc2)C(=O)[C@@H](C)Oc2ccccc2)c1C` [G798-0506]: 38 ± 2 µM and 61.15±6.15%. The like results for `COc1ccc(C(=O)[C@@H](Cn2cncn2)[C@H](Sc2ccccc2)c2ccccc2)cc1` [AQ-714/41674992] were, in that order, 20.8 ± 4.2 µM and 73.30±1.90%. With `O=C(Cc1ccc(N(Cc2ccccc2)C(=O)c2cccc(F)c2)cc1)NCc1cccnc1` [V016-3750], in experiment [1], half-maximal inhibition (IC50) required 42.9 ± 2.8 µM and the “Inhibition ratio (%) 50 (μM)” value is given as 54.90±1.70%.

Consider `CN(CC(=O)N1N=C(c2ccccc2Cl)C[C@H]1c1ccc2c(c1)OCO2)C(=O)C1CCCC1` [V025-9252], for which, in experiment [1], it took 45.5 ± 3.1 µM to reach half-maximal inhibition (IC50) and the “Inhibition ratio (%) 50 (μM)” value is given as 59.15±3.75%.

In the case of `O=C1C[C@H](C(=O)N(Cc2cccc3ccccc23)c2ccccn2)CN1Cc1ccccc1` [D491-0852], in experiment [1], the half-maximal inhibitory concentration (IC50) was 46.9 ± 6 µM and the “Inhibition ratio (%) 50 (μM)” value is 58.00±0.60%. On to `O=C1CS[C@@H](c2cccc(NS(=O)(=O)c3ccc4ccccc4c3)c2)N1c1ccc(F)cc1` [V010-1281], for which, in experiment [1], half-maximal inhibition (IC50) required 50 ± 6.4 µM and the “Inhibition ratio (%) 50 (μM)” value is listed as 60.85±2.05%. Consider `N#Cc1ccnc(N2C(=O)CC[C@H]2C(=O)N(c2cncc(F)c2)[C@H](C(=O)NC2CC(F)(F)C2)c2ccccc2Cl)c1` [AG-120], for which the “total overall response rate” value in experiment [2] is 42%.
